Experiments:
[1] = AUC in Beagle dog at 0.2 mg/kg, iv by LC-MS/MS analysis; assay type: ADME, organism-based, Canis lupus familiaris; conditions: in vivo
CYP2C8 = target: T1, CYP2C8 (Homo sapiens, UniProt P10632); assay: Inhibition of CYP2C8 in human liver microsomes using amodiaquine as substrate assessed as residual activity at 5 uM after 20 mins by HPLC analysis; assay type: ADME; conditions: probe amodiaquine, read-out: Activity
T1 sequence (P10632 whole entry): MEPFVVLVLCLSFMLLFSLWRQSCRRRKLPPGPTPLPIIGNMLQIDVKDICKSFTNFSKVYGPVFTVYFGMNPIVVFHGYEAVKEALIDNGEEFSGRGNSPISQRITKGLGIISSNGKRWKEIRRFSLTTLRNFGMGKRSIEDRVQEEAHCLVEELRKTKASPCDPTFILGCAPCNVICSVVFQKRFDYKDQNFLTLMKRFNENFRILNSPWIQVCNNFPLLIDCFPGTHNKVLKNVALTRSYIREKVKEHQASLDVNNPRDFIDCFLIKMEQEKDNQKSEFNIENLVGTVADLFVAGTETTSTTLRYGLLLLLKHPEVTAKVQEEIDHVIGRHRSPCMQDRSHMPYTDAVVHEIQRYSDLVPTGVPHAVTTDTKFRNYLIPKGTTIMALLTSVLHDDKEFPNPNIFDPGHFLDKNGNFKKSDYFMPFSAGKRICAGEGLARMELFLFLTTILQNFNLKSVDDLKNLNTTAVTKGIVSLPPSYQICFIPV

[2] = Oral bioavailability in Beagle dog at 0.2 mg/kg by LC-MS/MS analysis; assay type: ADME, organism-based, Canis lupus familiaris; conditions: in vivo
[3] = Total clearance in cynomolgus monkey at 0.2 mg/kg, iv by LC-MS/MS analysis; assay type: ADME, organism-based, Macaca fascicularis; conditions: in vivo
[4] = AUC in cynomolgus monkey at 0.2 mg/kg, po by LC-MS/MS analysis; assay type: ADME, organism-based, Macaca fascicularis; conditions: in vivo
CYP2D6 = CYP2D6 (Homo sapiens, UniProt P10635); assay: Inhibition of CYP2D6 in human liver microsomes using dextromethorphan as substrate assessed as residual activity at 5 uM after 20 mins by HPLC analysis; assay type: ADME; conditions: probe dextromethorphan, read-out: Activity
CYP2C19 = CYP2C19 (Homo sapiens, UniProt P33261); assay: Inhibition of CYP2C19 in human liver microsomes using S-mephenytoin as substrate assessed as residual activity at 5 uM after 20 mins by HPLC analysis; assay type: ADME; conditions: probe S-mephenytoin, read-out: Activity
CYP3A4 = CYP3A4 (Homo sapiens, UniProt P08684); assay: Inhibition of CYP3A4 in human liver microsomes using midazolam as substrate assessed as residual activity at 5 uM after 20 mins by HPLC analysis; assay type: ADME; conditions: probe midazolam, read-out: Activity
[5] = Cmax in cynomolgus monkey at 0.2 mg/kg, po by LC-MS/MS analysis; assay type: ADME, organism-based, Macaca fascicularis; parameters: dose 0.2 mg/kg, route oral; conditions: in vivo
[6] = Total clearance in Sprague-Dawley rat at 1 mg/kg, iv by LC-MS/MS analysis; assay type: ADME, organism-based; conditions: in vivo
[7] = Tmax in cynomolgus monkey at 0.2 mg/kg, po by LC-MS/MS analysis; assay type: ADME, organism-based, Macaca fascicularis; conditions: in vivo
[8] = Tmax in Sprague-Dawley rat at 1 mg/kg, po by LC-MS/MS analysis; assay type: ADME, organism-based; conditions: in vivo
[9] = AUC in Sprague-Dawley rat at 1 mg/kg, iv by LC-MS/MS analysis; assay type: ADME, organism-based; conditions: in vivo
[10] = AUC in Sprague-Dawley rat at 1 mg/kg, po by LC-MS/MS analysis; assay type: ADME, organism-based; conditions: in vivo
Rattus norvegicus [11] = assay: In vivo inhibition of VAP-1 in Wistar rat plasma at 0.3 mg/kg, po after 6 hrs in presence of [14C]-benzylamine by liquid scintillation counting analysis relative to control; assay type: functional
[12] = Oral bioavailability in cynomolgus monkey at 0.2 mg/kg by LC-MS/MS analysis; assay type: ADME, organism-based, Macaca fascicularis; conditions: in vivo
[13] = Half life in Sprague-Dawley rat at 1 mg/kg, iv by LC-MS/MS analysis; assay type: ADME, organism-based; conditions: in vivo
[14] = Volume of distribution at steady state in Beagle dog at 0.2 mg/kg, iv by LC-MS/MS analysis; assay type: ADME, organism-based, Canis lupus familiaris; conditions: in vivo, read-out: Vdss
[15] = Volume of distribution at steady state in Sprague-Dawley rat at 1 mg/kg, iv by LC-MS/MS analysis; assay type: ADME, organism-based; conditions: in vivo, read-out: Vdss
Rattus norvegicus [16] = assay: In vivo inhibition of VAP-1 in Wistar rat plasma at 0.3 mg/kg, po after 1 hr in presence of [14C]-benzylamine by liquid scintillation counting analysis relative to control; assay type: functional
[17] = Cmax in Beagle dog at 0.2 mg/kg, po by LC-MS/MS analysis; assay type: ADME, organism-based, Canis lupus familiaris; parameters: dose 0.2 mg/kg, route oral; conditions: in vivo
[18] = AUC in Beagle dog at 0.2 mg/kg, po by LC-MS/MS analysis; assay type: ADME, organism-based, Canis lupus familiaris; conditions: in vivo
[19] = Aqueous solubility of compound in Japanese pharmacopoeia second fluid at pH 6.8 at 130 uM after 20 hrs by HPLC analysis; assay type: physicochemical
[20] = Volume of distribution at steady state in cynomolgus monkey at 0.2 mg/kg, iv by LC-MS/MS analysis; assay type: ADME, organism-based, Macaca fascicularis; conditions: in vivo, read-out: Vdss
[21] = Half life in cynomolgus monkey at 0.2 mg/kg, iv by LC-MS/MS analysis; assay type: ADME, organism-based, Macaca fascicularis; conditions: in vivo
CYP1A2 = target: T2, CYP1A2 (Homo sapiens, UniProt P05177); assay: Inhibition of CYP1A2 in human liver microsomes using phenacetin as substrate assessed as residual activity at 5 uM after 20 mins by HPLC analysis; assay type: ADME; conditions: probe phenacetin, read-out: Activity
T2 sequence (P05177 whole entry): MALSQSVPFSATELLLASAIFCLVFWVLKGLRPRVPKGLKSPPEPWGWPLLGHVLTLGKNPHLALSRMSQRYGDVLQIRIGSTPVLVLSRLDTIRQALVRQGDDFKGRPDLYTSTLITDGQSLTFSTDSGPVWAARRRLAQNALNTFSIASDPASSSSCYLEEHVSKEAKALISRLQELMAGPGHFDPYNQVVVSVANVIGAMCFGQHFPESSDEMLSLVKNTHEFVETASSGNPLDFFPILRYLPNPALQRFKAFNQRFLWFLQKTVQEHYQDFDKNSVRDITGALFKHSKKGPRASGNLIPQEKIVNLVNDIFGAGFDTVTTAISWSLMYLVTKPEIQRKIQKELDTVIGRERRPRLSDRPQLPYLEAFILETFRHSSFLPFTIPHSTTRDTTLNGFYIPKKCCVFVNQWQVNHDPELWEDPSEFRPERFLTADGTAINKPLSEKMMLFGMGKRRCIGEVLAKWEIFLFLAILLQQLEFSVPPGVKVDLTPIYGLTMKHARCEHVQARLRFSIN

[22] = Oral bioavailability in Sprague-Dawley rat at 1 mg/kg by LC-MS/MS analysis; assay type: ADME, organism-based; conditions: in vivo
[23] = Cmax in Sprague-Dawley rat at 1 mg/kg, po by LC-MS/MS analysis; assay type: ADME, organism-based; parameters: dose 1 mg/kg, route oral; conditions: in vivo
[24] = Tmax in Beagle dog at 0.2 mg/kg, po by LC-MS/MS analysis; assay type: ADME, organism-based, Canis lupus familiaris; conditions: in vivo
[25] = Half life in Beagle dog at 0.2 mg/kg, iv by LC-MS/MS analysis; assay type: ADME, organism-based, Canis lupus familiaris; conditions: in vivo
[26] = Total clearance in Beagle dog at 0.2 mg/kg, iv by LC-MS/MS analysis; assay type: ADME, organism-based, Canis lupus familiaris; conditions: in vivo
[27] = AUC in cynomolgus monkey at 0.2 mg/kg, iv by LC-MS/MS analysis; assay type: ADME, organism-based, Macaca fascicularis; conditions: in vivo

Sequence of CYP2C19 (P33261 whole entry): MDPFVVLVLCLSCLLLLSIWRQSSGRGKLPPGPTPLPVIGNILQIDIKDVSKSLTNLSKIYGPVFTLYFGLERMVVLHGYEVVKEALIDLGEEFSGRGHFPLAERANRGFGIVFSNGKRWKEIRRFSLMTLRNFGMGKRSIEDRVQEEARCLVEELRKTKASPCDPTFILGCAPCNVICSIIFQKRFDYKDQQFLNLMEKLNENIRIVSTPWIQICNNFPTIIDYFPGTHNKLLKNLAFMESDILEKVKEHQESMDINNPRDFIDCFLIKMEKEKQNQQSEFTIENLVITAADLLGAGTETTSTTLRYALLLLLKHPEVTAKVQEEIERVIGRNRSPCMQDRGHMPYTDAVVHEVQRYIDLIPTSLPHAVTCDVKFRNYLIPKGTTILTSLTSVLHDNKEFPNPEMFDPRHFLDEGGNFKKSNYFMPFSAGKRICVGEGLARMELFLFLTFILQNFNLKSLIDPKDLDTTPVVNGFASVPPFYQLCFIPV
Sequence of CYP2D6 (P10635 whole entry): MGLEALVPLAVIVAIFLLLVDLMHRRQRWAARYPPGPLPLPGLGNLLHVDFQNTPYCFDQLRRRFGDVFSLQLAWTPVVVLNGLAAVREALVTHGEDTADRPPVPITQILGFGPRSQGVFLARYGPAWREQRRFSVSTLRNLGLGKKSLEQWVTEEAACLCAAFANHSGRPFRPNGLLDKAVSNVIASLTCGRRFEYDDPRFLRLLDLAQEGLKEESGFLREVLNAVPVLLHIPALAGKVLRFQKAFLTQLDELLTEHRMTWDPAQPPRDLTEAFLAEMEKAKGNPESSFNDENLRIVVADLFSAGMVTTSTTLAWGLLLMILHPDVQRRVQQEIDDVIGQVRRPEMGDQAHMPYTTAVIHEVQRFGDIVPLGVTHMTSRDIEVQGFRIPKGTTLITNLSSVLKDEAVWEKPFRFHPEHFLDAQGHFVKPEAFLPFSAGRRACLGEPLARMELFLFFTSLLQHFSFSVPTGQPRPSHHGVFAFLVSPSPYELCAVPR
Sequence of CYP3A4 (P08684 whole entry): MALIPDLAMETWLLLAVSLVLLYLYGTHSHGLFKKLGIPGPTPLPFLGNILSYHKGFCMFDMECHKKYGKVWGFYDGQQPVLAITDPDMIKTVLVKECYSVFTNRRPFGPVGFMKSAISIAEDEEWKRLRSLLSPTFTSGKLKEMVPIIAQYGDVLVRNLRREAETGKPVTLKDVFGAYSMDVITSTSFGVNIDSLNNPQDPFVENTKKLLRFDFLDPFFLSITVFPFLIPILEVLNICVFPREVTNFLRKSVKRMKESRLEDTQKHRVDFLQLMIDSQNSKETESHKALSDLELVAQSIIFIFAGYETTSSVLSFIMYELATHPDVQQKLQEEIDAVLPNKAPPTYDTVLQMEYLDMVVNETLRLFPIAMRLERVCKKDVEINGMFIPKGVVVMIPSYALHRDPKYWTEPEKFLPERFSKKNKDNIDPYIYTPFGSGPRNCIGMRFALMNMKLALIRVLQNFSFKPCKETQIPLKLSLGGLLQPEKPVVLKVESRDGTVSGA

AUC [1]: 380 ng·h/mL
activity at 20 min, 5 µM (CYP2C8): 91%
bioavailability [2]: 78%
clearance [3]: 0.7 mL/min/kg
AUC [4]: 4510 ng·h/mL
activity at 20 min, 5 µM (CYP2D6): 95%
activity at 20 min, 5 µM (CYP2C19): 99%
activity at 20 min, 5 µM (CYP3A4): 85%
Cmax [5]: 201 ng/mL
clearance [6]: 5.2 mL/min/kg
Tmax [7]: 2.7 h
Tmax [8]: 0.8 h
AUC [9]: 3200 ng·h/mL
AUC [10]: 2320 ng·h/mL
bioavailability [12]: 85%
half-life [13]: 3.3 h
Vd [14]: 4.43 L/kg
Vd [15]: 1.06 L/kg
Cmax [17]: 29.9 ng/mL
AUC [18]: 297 ng·h/mL
solubility at 20 h, 130 µM [19]: ≥ 100 µM
Vd [20]: 1.39 L/kg
half-life [21]: 64 h
activity at 20 min, 5 µM (CYP1A2): 99%
bioavailability [22]: 73%
Cmax [23]: 401 ng/mL
Tmax [24]: 0.8 h
half-life [25]: 8.9 h
clearance [26]: 8.9 mL/min/kg
AUC [27]: 5350 ng·h/mL
SMILES: Cc1ccc(OC2CN(c3cccc(COC(=O)NC(=N)N)c3F)C2)cn1.O=C(O)C(O)C(O)C(=O)O
inhibition in vivo at 0.3 mg/kg (Rattus norvegicus [11]): 74%
inhibition in vivo at 0.3 mg/kg (Rattus norvegicus [16]): 92%

From ChEMBL document CHEMBL4043269, “Synthesis and structure activity relationships of carbamimidoylcarbamate derivatives as novel vascular adhesion protein-1 inhibitors” (Bioorg Med Chem, 2017)
